Results reported in PubChem BioAssay AID2060502 (Molecular Pharmacology Branch, DTP, NCI, 2025).
“And” between values parts separate entries of the source, which are not always exact repeats. Identical values can stand only once.

Test system: 885724-159-R-J1-PDC complex spheroid viability
Assay: Anticancer human tumor 885724-159-R-J1-PDC patient-derived pancreatic adenocarcinoma cell line growth inhibition [GQUAD]
Details: for viability, T/C: stronger effect = lower value
From the text: DNA G-quadruplex Stabilizer Agents in Combinations in Complex Spheroids
A high-throughput screen of multi-cell type tumor spheroids was designed to identify active combinations of DNA G-quadruplex stabilizer agents and targeted small molecules. Complex spheroids include a stromal component modeled by human endothelial cells (HUVEC) and fibroblasts modeled by human mesenchymal stem cells (MSCs). The concentration ranges selected for each drug and investigational agent were based upon clinically achievable concentrations if the clinical Cmax of the agent was known.
Compounds. The drugs and investigational agents: pidnarulex (CX-5461; NSC782164), APTO-253 (NSC789042), BRACO-19 (NSC847499), peposertib (NSC802822), ceralasertib (NSC780249), elimusertib (NSC800525), camonsertib (NSC841442), AZD-1390 (NSC803789), olaparib (NSC753686), talazoparib (NSC767125), ART-558 (NSC835418), sotorasib (NSC818433), MRTX-1133 (NSC836407), SN-38 (NSC673596), topotecan (NSC609699), etoposide (NSC141540), doxorubicin (NSC123127), gemcitabine (NSC613327), 5-fluorouracil (NSC19893), paclitaxel (NSC125973), vemurafenib (NSC761431), panobinostat (NSC761190), R-306465 (JNJ-16241199; NSC773264), adavosertib (NSC754352), TP-3654 (NSC805149), carboplatin (NSC241240), KSQ-4279 (NSC840948), and staurosporine (NSC755774) were obtained from the National Cancer Institute (NCI) Developmental Therapeutics Program Chemical Repository (34). The FDA-approved anticancer drug set is available from the NCI Developmental Therapeutics Program. […] The stock solutions were prepared in dimethyl sulfoxide (DMSO, Sigma-Aldrich, St. Louis, MO, cat. D2650) at 800-fold the tested concentration and stored at -70 degrees C prior to their use. All drugs and investigational agents were tested over a range starting from a high concentration at or near the clinical Cmax and decreasing in half-log increments. If the clinical Cmax for an agent had not been determined, the highest concentration tested was 10 microM.
2.3 Cell Culture. All cells were maintained in an incubator at 37 degrees C and 5% CO2 with 95% humidity. The PDC lines were cultured according to standard operating procedures established by the NCI PDMR. All PDCs were thawed and cultured in Matrigel-coated flasks prepared with a working solution of 1X Ham's F-12 nutrient mix, without supplementation (Invitrogen, cat. 11765054), 100 U/mL penicillin-streptomycin (Invitrogen, cat. 15140122), and 2.5% Matrigel (Corning Inc., cat. 354248) for the first three passages. The 857933-349-R-J2-PDC line was cultured in 6C/Colon 1B media, which includes advanced DMEM/F-12 (Thermo Fisher Scientific, cat. 12634028), 10 mM HEPES (Thermo Fisher Scientific, cat. 15630080), 1X GlutaMAX supplement (Thermo Fisher Scientific, cat. 35050061), 0.1 mg/mL primocin (InvivoGen, cat. ant-pm-2), 10% defined fetal bovine serum, heat inactivated (HyClone Laboratories Inc., cat. SH30070.03HI), 50% L-WRN conditioned media (ATCC, cat. CRL-3276), 1.25 mM N-Acetyl-L-cysteine (Sigma-Aldrich, cat. A9165), 10 mM nicotinamide (Sigma-Aldrich, cat. N0636), 1X B-27 supplement (Thermo Fisher Scientific, cat. 17504044), 1X N-2 supplement (Thermo Fisher Scientific, cat. 17502048), 10 microM Y-27632 dihydrochloride (Tocris Bioscience, cat. 1254), and 50 ng/mL human EGF recombinant protein (Thermo Fisher Scientific, cat. PHG0311). The 485176-168-R4-J1-PDC line was cultured in Panc media, which includes all 6C/Colon 1B media components plus 100 ng/mL human FGF-10 (Thermo Fisher Scientific, cat. 100-26), 500 nM SB-431542 (Selleckchem, cat. S1067), and gastrin (Tocris, cat. 3006).
[…]
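Also: spheroids exposed to agents for seven days before readout.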
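For viability, T/C in this document: percent of vehicle control viability where 100% = DMSO wells.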

CC[C@@]1(O)C(=O)OCc2c1cc1n(c2=O)Cc2cc3c(CN(C)C)c(O)ccc3nc2-1 + Cc1[nH]c2ccc(F)cc2c1-c1nc2c3cccnc3c3ncccc3c2[nH]1
IC50 (curve of first compound, second compound 0.0316 µM): > 0.316 µM
IC50 (curve of first compound, second compound 0.1 µM): > 0.316 µM
IC50 (curve of first compound, second compound 0.316 µM): > 0.316 µM
IC50 (curve of first compound, second compound 1 µM): > 0.316 µM
IC50 (curve of first compound, second compound 3.16 µM): < 0.000999 µM
IC50 (curve of first compound, second compound 10 µM): > 0.316 µM
viability, T/C (second compound 0.0316 µM, first compound 0.000999 µM): 90.3%
viability, T/C (second compound 0.0316 µM, first compound 0.00316 µM): 114%
viability, T/C (second compound 0.0316 µM, first compound 0.00999 µM): 98.9%
viability, T/C (second compound 0.0316 µM, first compound 0.0316 µM): 97.6%
viability, T/C (second compound 0.0316 µM, first compound 0.0999 µM): 84.2%
viability, T/C (second compound 0.0316 µM, first compound 0.316 µM): 68.7%
viability, T/C (second compound 0.1 µM, first compound 0.000999 µM): 98.9%
viability, T/C (second compound 0.1 µM, first compound 0.00316 µM): 104%
viability, T/C (second compound 0.1 µM, first compound 0.00999 µM): 98%
viability, T/C (second compound 0.1 µM, first compound 0.0316 µM): 93.6%
viability, T/C (second compound 0.1 µM, first compound 0.0999 µM): 87.8%
viability, T/C (second compound 0.1 µM, first compound 0.316 µM): 74.6%
viability, T/C (second compound 0.316 µM, first compound 0.000999 µM): 85.5%
viability, T/C (second compound 0.316 µM, first compound 0.00316 µM): 83.9%
viability, T/C (second compound 0.316 µM, first compound 0.00999 µM): 96.7%
viability, T/C (second compound 0.316 µM, first compound 0.0316 µM): 78.2%
viability, T/C (second compound 0.316 µM, first compound 0.0999 µM): 80.8%
viability, T/C (second compound 0.316 µM, first compound 0.316 µM): 69.2%
viability, T/C (second compound 1 µM, first compound 0.000999 µM): 80.8%
viability, T/C (second compound 1 µM, first compound 0.00316 µM): 75.7%
viability, T/C (second compound 1 µM, first compound 0.00999 µM): 67.7%
viability, T/C (second compound 1 µM, first compound 0.0316 µM): 75.5%
viability, T/C (second compound 1 µM, first compound 0.0999 µM): 67%
viability, T/C (second compound 1 µM, first compound 0.316 µM): 60.5%
viability, T/C (second compound 3.16 µM, first compound 0.000999 µM): 42.8%
viability, T/C (second compound 3.16 µM, first compound 0.00316 µM): 30.9%
viability, T/C (second compound 3.16 µM, first compound 0.00999 µM): 35.1%
viability, T/C (second compound 3.16 µM, first compound 0.0316 µM): 34.2%
viability, T/C (second compound 3.16 µM, first compound 0.0999 µM): 33.3%
viability, T/C (second compound 3.16 µM, first compound 0.316 µM): 23.6%
viability, T/C (second compound 10 µM, first compound 0.000999 µM): 64.1%
viability, T/C (second compound 10 µM, first compound 0.00316 µM): 72.6%
viability, T/C (second compound 10 µM, first compound 0.00999 µM): 70.2%
viability, T/C (second compound 10 µM, first compound 0.0316 µM): 68.3%
viability, T/C (second compound 10 µM, first compound 0.0999 µM): 63.4%
viability, T/C (second compound 10 µM, first compound 0.316 µM): 49.1%

C#Cc1c(F)ccc2cc(O)cc(-c3ncc4c(N5CC6CCC(C5)N6)nc(OCC56CCCN5CC(F)C6)nc4c3F)c12 (stereo not drawn)
viability, T/C (compound 0.0316 µM): 97.3% and 99.6% and 91.8%
viability, T/C (compound 0.1 µM): 101% and 92.4% and 93%
viability, T/C (compound 0.316 µM): 89.8% and 94.6% and 104%
viability, T/C (compound 1 µM): 90.2% and 88.2% and 81.5%
viability, T/C (compound 3.16 µM): 53.6% and 55.8% and 58.6%
viability, T/C (compound 10 µM): 30% and 25.7% and 22.7%
IC50 (curve of compound): 3.8 µM and 3.95 µM and 4.07 µM

C=CC(=O)N1CCN(c2nc(=O)n(-c3c(C)ccnc3C(C)C)c3nc(-c4c(O)cccc4F)c(F)cc23)C(C)C1 (stereo not drawn)
viability, T/C (compound 0.0316 µM): 96.5% and 93.7% and 94.2%
viability, T/C (compound 0.1 µM): 88.8% and 90% and 101%
viability, T/C (compound 0.316 µM): 98.2% and 110% (2×)
viability, T/C (compound 1 µM): 117% and 108% and 105%
viability, T/C (compound 3.16 µM): 95.2% and 106% and 104%
viability, T/C (compound 10 µM): 87% and 89.9% and 96.3%
IC50 (curve of compound): > 10 µM

O=c1[nH]cc(F)c(=O)[nH]1
viability, T/C (compound 0.0316 µM): 96.3% and 85.1% and 106%
viability, T/C (compound 0.1 µM): 100% and 95.1% and 93.2%
viability, T/C (compound 0.316 µM): 96.9% and 89% and 95.5%
viability, T/C (compound 1 µM): 91.2% and 94% and 92.8%
viability, T/C (compound 3.16 µM): 94.3% and 94.6% and 93.9%
viability, T/C (compound 10 µM): 88.3% and 87.7% and 92%
IC50 (curve of compound): > 10 µM

Cc1cnc(CNC(=O)c2c(=O)c3ccc(N4CCCN(C)CC4)nc3n3c2sc2ccccc23)cn1
viability, T/C (compound 0.316 µM): 98.5% [middle of 12 runs]
viability, T/C (compound 1 µM): 87.6% [middle of 11 runs]
viability, T/C (compound 3.16 µM): 80.1% [middle of 12 runs]
viability, T/C (compound 10 µM): 77.7% [middle of 12 runs]
IC50 (compound alone, run of 02/20/2024): > 10 µM
